Consider 1 compound from PMC11257323, “Thermostabilization of a fungal laccase by entrapment in enzymatically synthesized levan nanoparticles” (PLOS ONE, 2024).

The test concerns the target T1, LevS△N70Tn38 (Leuconostoc mesenteroides, UniProt Q1L7R6).
T1 construct: truncated levansucrase LevS△N70Tn38 (name implies N-terminal 70-residue deletion); pET-22b, expressed in E. coli BL21, DEAE-purified
As to the kind of experiment: DNS reducing-sugar assay. It is filed as biochemical. As to conditions: 292 mM sucrose; 50 mM acetate pH 6.0; 1 mM CaCl2; 30°C.

Structures are written as SMILES.

T1 sequence (Q1L7R6 entry or part of it): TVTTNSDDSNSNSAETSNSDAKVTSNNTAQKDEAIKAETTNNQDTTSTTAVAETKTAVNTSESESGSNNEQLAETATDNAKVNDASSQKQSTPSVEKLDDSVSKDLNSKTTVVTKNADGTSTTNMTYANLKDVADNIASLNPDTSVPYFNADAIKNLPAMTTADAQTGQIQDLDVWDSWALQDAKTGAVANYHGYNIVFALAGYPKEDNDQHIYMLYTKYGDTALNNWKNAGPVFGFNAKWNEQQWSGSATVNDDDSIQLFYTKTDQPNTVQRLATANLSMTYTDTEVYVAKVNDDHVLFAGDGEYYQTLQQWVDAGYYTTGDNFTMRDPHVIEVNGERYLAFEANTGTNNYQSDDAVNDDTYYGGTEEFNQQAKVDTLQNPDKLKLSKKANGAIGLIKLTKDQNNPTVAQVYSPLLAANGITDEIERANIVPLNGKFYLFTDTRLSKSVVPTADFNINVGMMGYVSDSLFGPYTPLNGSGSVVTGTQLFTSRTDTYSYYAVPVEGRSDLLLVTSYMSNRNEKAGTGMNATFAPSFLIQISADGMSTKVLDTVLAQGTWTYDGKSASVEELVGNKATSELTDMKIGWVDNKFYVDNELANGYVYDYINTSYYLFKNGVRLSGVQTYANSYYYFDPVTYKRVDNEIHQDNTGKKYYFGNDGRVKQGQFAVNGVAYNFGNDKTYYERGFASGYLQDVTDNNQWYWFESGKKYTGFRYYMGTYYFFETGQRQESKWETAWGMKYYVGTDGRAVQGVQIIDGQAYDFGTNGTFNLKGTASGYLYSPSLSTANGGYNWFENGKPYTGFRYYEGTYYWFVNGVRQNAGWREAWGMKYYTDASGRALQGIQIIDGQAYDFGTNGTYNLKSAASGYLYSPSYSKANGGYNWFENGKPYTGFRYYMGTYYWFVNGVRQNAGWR

On to `OC[C@H]1O[C@@](CO)(O[C@H]2O[C@H](CO)[C@@H](O)[C@H](O)[C@H]2O)[C@@H](O)[C@@H]1O` [sucrose], for which the DNS reducing-sugar assay entry is on record as “LevS△N70Tn38 activity was determined by quantification of released reducing sugars from sucrose”.
